In assay [1] the test system is EMC-BAC-2 (Non-Small Cell Lung Carcinoma). In words: Bliss excess, mean over the matrix (fraction); higher = more synergy. Put shortly:
(§1)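 Cell lines grown in DMEM/F12 or RPMI with 10% FBS were plated in 1536-well plates and held 24 hours at 37°C, 5% CO2 before 72 hours of exposure to two-drug dose matrices, with DMSO typically at 0.2%. CellTiter-Glo 2.0 luminescence gave viability, which was converted to inhibition. Vehicle wells were set to 0 and blank wells to 1. Combination Emax is the second-highest inhibition in the matrix, and Bliss excess is the observed combination effect minus the expected EA + EB − EA·EB, where EA and EB are the single-agent effects.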

The test system of assay [2] is GI-1 (Glioblastoma). The assay is described as above. Summed up:
as §1

Assay [3] has as its system IMR-5 (Neuroblastoma). Described as above. Put shortly: as §1
Assay [4] relates to KYSE-150 (Esophageal Squamous Cell Carcinoma). The assay is described as above. Summed up: as §1
Assay [5] concerns KYSE-50 (Esophageal Squamous Cell Carcinoma). The assay is described as above. Summed up: as §1
The test system of assay [6] is NB7 (Neuroblastoma). Described as above. Put shortly:
as §1

Assay [7] deals with NCI-H1573 (Lung Adenocarcinoma). The description is as above. Summed up: as §1
Assay [8] deals with NCI-H2347 (Lung Adenocarcinoma). The description is as above. Put shortly:
as §1

The subject of assay [9] is NCI-N87 (Gastric Carcinoma). Described as above. Summed up: as §1
For assay [10], the system named is OCUM-1 (Gastric Carcinoma). Described as above. Summed up: as §1
Assay [11] has as its system PF-382 (T-Lymphoblastic Leukemia). Described as above. Put shortly:
as §1

Assay [12] concerns RPMI-7951 (Melanoma). The assay is described as above. Put shortly:
as §1

The test system of assay [13] is SNU-C1 (Colorectal Carcinoma). The assay is described as above. Summed up: as §1
The subject of assay [14] is ASH-3 (Thyroid Gland Carcinoma). In words: combination Emax (second highest fraction inhibited in the dose matrix, 72 h); higher = more inhibition; extreme values may be limits of the assay. Summed up:
as §1

The test system of assay [15] is EW-18 (Ewing's Sarcoma). Described as above. Put shortly:
as §1

The subject of assay [16] is KINGS-1 (Low Grade Glioma). The description is as above. Put shortly: as §1
For assay [17], the system named is LOU-NH91 (Squamous Cell Lung Carcinoma). The assay is described as above. Put shortly: as §1
The test system of assay [18] is OCUM-1 (Gastric Carcinoma). The assay is described as above. Summed up: as §1
Assay [19] concerns SNU-C1 (Colorectal Carcinoma). The description is as above. Put shortly:
as §1

Assay [20] concerns VMRC-LCD (Lung Adenocarcinoma). Described as above. Summed up:
as §1

The record followed here is the supplement of paper PMC11061612.
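Wherever Bliss excess, mean over the matrix is given: after 72 h of two-drug dosing.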

On to `NC1(C(=O)N[C@@H](CCO)c2ccc(Cl)cc2)CCN(c2ncnc3[nH]ccc23)CC1` [Capivasertib] + CC(=O)c1c(C)c2cnc(Nc3ccc(N4CCNCC4)cn3)nc2n(C2CCCC2)c1=O [Palbociclib] (first compound max 10 µM, 7x7, partner max 10 µM), for which the Bliss excess in assay [1] is -0.0727; in assay [2], 0.0117; in assay [3], 0.0514; in assay [4], 0.0446; in [5], -0.0129; in assay [6], 0.0291. Further, the Bliss excess in assay [7] was -0.0204; in [8], -0.0459; in [9] it was -0.0066; in assay [10], -0.0194; in assay [11] it was -0.0151; in assay [12], 0.0186. For the same compound, the Bliss excess in assay [13] is -0.0506. Also, the “combination Emax” value was 0.581 in assay [14]; 0.807 in assay [15]; 0.414 in [16]; 0.5 in assay [17]; 0.582 in assay [18]; 0.549 in assay [19]. Further, the “combination Emax” value in [20] came to 0.127.

With `CN(C)CCCOc1ccc(-c2ccc3ncc4c(c3c2)n(C2CCOCC2)c(=O)n4C)cn1` [AZD0156] + C[C@@H]1COCCN1C2=NC(=NC(=C2)C3(CC3)[S@](=N)(=O)C)C4=C5C=CNC5=NC=C4 [AZD6738] (first compound max 1 µM, 7x7, partner max 10 µM), the Bliss excess in [1] is 0.0272; in assay [2], -0.0234; in assay [3] it was -0.0432; in assay [4], 0.0146; in assay [5], 0.0101; in assay [6], 0.0348. Besides, the Bliss excess was -0.0098 in assay [7]; -0.049 in assay [8]; -0.0286 in [9]; 0.0437 in [10]; 0.0357 in assay [11]; 0.0468 in assay [12]. In assay [13], the Bliss excess worked out at 0.0001. In addition, the “combination Emax” value in assay [14] worked out at 0.719; in assay [15], 0.727; in assay [16] it was 0.25; in assay [17] it was 0.236; in assay [18], 0.783; in assay [19], 0.489. The “combination Emax” value in assay [20] was determined as 0.534.

`CN(C)CCCOc1ccc(-c2ccc3ncc4c(c3c2)n(C2CCOCC2)c(=O)n4C)cn1` [AZD0156] + O=C(c1cc(Cc2n[nH]c(=O)c3ccccc23)ccc1F)N1CCN(C(=O)C2CC2)CC1 [Olaparib] (first compound max 3 µM, partner max 3 µM): the Bliss excess in [1] turned out to be 0.147; in [2], 0.0337; in [3], 0.0884; in assay [4], 0.116; in assay [5], 0.0152; in assay [6] it was 0.115. Moreover, the Bliss excess in assay [7] is 0.0002; in assay [8], -0.0089; in assay [9] it was -0.0568; in assay [10] it was -0.0199; in assay [11] it was 0.102; in [12] it was 0.0588. In addition, in assay [13], the Bliss excess is -0.0049. For the same compound, the “combination Emax” value in assay [14] amounted to 0.194; in assay [15] it was 0.61; in assay [16], 0.176; in assay [17] it was 0.209; in assay [18] it was 0.319; in assay [19] it was 0.226. For the same compound, the “combination Emax” value in assay [20] turned out to be 0.0443.

As to `C=CCn1c(=O)c2cnc(Nc3ccc(N4CCN(C)CC4)cc3)nc2n1-c1cccc(C(C)(C)O)n1` [AZD1775] + C[C@@H]1COCCN1C2=NC(=NC(=C2)C3(CC3)[S@](=N)(=O)C)C4=C5C=CNC5=NC=C4 [AZD6738] (first compound max 1 µM, partner max 10 µM), the Bliss excess in assay [1] was 0.0125; in assay [2] it was 0.0753; in [3], 0.085; in assay [4], -0.029; in assay [5] it was 0.0328; in assay [6] it was -0.025. Moreover, the Bliss excess in [7] is 0.0215; in assay [8], 0.0438; in assay [9] it was -0.0824; in [10] it was -0.0391; in [11], -0.0022; in [12], 0.0368. Also, the Bliss excess in assay [13] stood at 0.0303. Also, the “combination Emax” value in assay [14] is 0.848; in assay [15] it was 0.66; in assay [16], 0.533; in [17], 0.54; in assay [18] it was 0.816; in [19], 0.624. Further, the “combination Emax” value in [20] was 0.733.

On to `CC1(C)CCC(CN2CCN(c3ccc(C(=O)NS(=O)(=O)c4ccc(NCC5CCOCC5)c([N+](=O)[O-])c4)c(Oc4cnc5[nH]ccc5c4)c3)CC2)=C(c2ccc(Cl)cc2)C1` [Venetoclax] + CN(C)CCCOc1ccc(-c2ccc3ncc4c(c3c2)n(C2CCOCC2)c(=O)n4C)cn1 [AZD0156] (first compound max 1 µM, 7x7, partner max 1 µM), for which the Bliss excess in assay [1] was -0.0593; in assay [2], 0.0106; in assay [3], -0.0087; in assay [4] it was -0.0356; in assay [5], -0.0399; in assay [6] it was 0.0104. Besides, the Bliss excess in assay [7] is -0.0249; in [8], -0.0488; in [9] it was -0.0763; in [10], -0.0257; in assay [11], 0.0446; in assay [12] it was 0. The Bliss excess in assay [13] is -0.051. Further, the “combination Emax” value in [14] came out at 0.229; in [15], 0.389; in assay [16], 0.301; in assay [17] it was 0.227; in [18] it was 0.284; in assay [19], 0.163. Besides, the “combination Emax” value in assay [20] was 0.153.

Consider `CN(CCO)CC[C@H](CSc1ccccc1)Nc1ccc(S(=O)(=O)NC(=O)c2ccc(N3CCC([C@@H](O)c4ccccc4-c4ccc(Cl)cc4)CC3)cc2)cc1S(=O)(=O)C(F)(F)F` [AZD4320] + C1CN(CCC1(C(=O)N[C@@H](CCO)C2=CC=C(C=C2)Cl)N)C3=NC=NC4=C3C=CN4 [Capivasertib] (first compound max 1 µM, 7x7, partner max 3 µM), for which the Bliss excess in [1] is -0.0761; in assay [2] it was 0.0172; in assay [3], 0.154; in assay [4], -0.0579; in assay [5], -0.0344; in [6], -0.0403. For the same compound, the Bliss excess in assay [7] is 0.0699; in assay [8], -0.0533; in [9] it was -0.103; in [10] it was -0.0087; in assay [11], 0.0458; in assay [12] it was 0.0055. For the same compound, in assay [13], the Bliss excess was -0.0886. The “combination Emax” value stood at 0.59 in [14]; 0.875 in [15]; 0.49 in assay [16]; 0.494 in assay [17]; 0.861 in assay [18]; 0.775 in assay [19]. Besides, the “combination Emax” value in assay [20] came to 0.0578.

On to `COc1cc2ncnc(Nc3ccc(F)c(Cl)c3)c2cc1OCCCN1CCOCC1` [Gefitinib] + CC(C)n1c(=O)n(C)c2cnc3cc(F)c(-c4ccc(OCCCN5CCCCC5)nc4)cc3c21 [AZD1390] (first compound max 10 µM, 7x7, partner max 0.3 µM), for which the Bliss excess was -0.0706 in [1]; -0.013 in [2]; -0.0516 in assay [3]; -0.0834 in assay [4]; -0.0546 in [5]; -0.0402 in assay [6]. The Bliss excess is -0.104 in [7]; -0.0771 in [8]; -0.064 in assay [9]; -0.101 in assay [10]; -0.0668 in assay [11]; -0.0498 in [12]. In addition, in assay [13], the Bliss excess is -0.0507. Further, the “combination Emax” value in assay [14] was determined as 0.146; in assay [15], 0.229; in [16] it was 0.113; in [17], 0.404; in assay [18], 0.148; in assay [19], 0.0654. In addition, the “combination Emax” value in [20] worked out at 0.0987.
